Experimental data from patent publication US10526336B2, “Fused heteroaryl derivatives as orexin receptor antagonists” (Merck Sharp & Dohme Corp., priority 2014, dated 2020).
pIC50: −log10 of the molar value.

Target: human orexin-2 receptor (Homo sapiens (Human), UniProt O43614)
Assay: FLIPR Ca2+ Flux Assay, orexin-2 receptor antagonism in CHO cells
Type: cell-based
Conditions: CHO cells expressing the human orexin-2 receptor; agonist 70 pM Ala-6,12 orexin-A; read-out: hOX2 FLIPR IC50
Procedure: The utility of the compounds in accordance with the present invention as orexin receptor OX1R and/or OX2R antagonists may be readily determined without undue experimentation by methodology well known in the art, including the “FLIPR Ca^2+ Flux Assay” (Okumura et al., Biochem. Biophys. Res. Comm. 280:976-981, 2001). In a typical experiment the OX1 and OX2 receptor antagonistic activity of the compounds of the present invention was determined in accordance with the following experimental method. For intracellular calcium measurements, Chinese hamster ovary (CHO) cells expressing the rat orexin-1 receptor or the human orexin-2 receptor, are grown in Iscove's modified DMEM containing 2 mM L-glutamine, […], 1% hypoxanthine-thymidine supplement, 100 U/ml penicillin, 100 μg/ml streptomycin and 10% heat-inactivated fetal calf serum (FCS). The cells are seeded at 20,000 cells/well into Becton-Dickinson black 384-well clear bottom sterile plates coated with poly-D-lysine. All reagents are from GIBCO-Invitrogen Corp. The seeded plates are incubated overnight at 37° C. and 5% CO2. Ala-6,12 human orexin-A as the agonist is prepared as a 1 mM stock solution in 1% bovine serum albumin (BSA) and diluted in assay buffer (HBSS containing 20 mM HEPES, 0.1% BSA and 2.5 mM probenecid, pH7.4) for use in the assay at a final concentration of 70 pM. Test compounds are prepared as 10 mM stock solution in DMSO, then diluted in 384-well plates, first in DMSO, then assay buffer. On the day of the assay, cells are washed 3 times with 100 μl assay buffer and then incubated for 60 min (37° C., 5% CO2) in 60 μl assay buffer containing […] Fluo-4AM ester, 0.02% pluronic acid, and 1% BSA. The dye loading solution is then aspirated and cells are washed 3 times with 100 μl assay buffer. 30 μl of that same buffer is left in each well. Within the Fluorescent Imaging Plate Reader (FLIPR, Molecular Devices), test compounds are added to the plate in a volume of 25 μl, incubated for 5 min and finally 25 μl of agonist is added. Fluorescence is measured for each well at 1 second intervals for 5 minutes and the height of each fluorescence peak is compared to the height of the fluorescence peak induced by 70 pM Ala-6,12 orexin-A with buffer in place of antagonist. For each antagonist, IC50 value (the concentration of compound needed to inhibit 50% of the agonist response) is determined. Alternatively, compound potency can be assessed by a radioligand binding assay (described in Bergman et. al. Bioorg. Med. Chem. Lett. 2008, 18, 1425-1430) in which the inhibition constant (Ki) is determined in membranes prepared from CHO cells expressing either the OX1 or OX2 receptor. The intrinsic orexin receptor antagonist activity of a compound which may be used in the present invention may be determined by these assays.

Chain of human orexin-2 receptor (O43614 whole entry): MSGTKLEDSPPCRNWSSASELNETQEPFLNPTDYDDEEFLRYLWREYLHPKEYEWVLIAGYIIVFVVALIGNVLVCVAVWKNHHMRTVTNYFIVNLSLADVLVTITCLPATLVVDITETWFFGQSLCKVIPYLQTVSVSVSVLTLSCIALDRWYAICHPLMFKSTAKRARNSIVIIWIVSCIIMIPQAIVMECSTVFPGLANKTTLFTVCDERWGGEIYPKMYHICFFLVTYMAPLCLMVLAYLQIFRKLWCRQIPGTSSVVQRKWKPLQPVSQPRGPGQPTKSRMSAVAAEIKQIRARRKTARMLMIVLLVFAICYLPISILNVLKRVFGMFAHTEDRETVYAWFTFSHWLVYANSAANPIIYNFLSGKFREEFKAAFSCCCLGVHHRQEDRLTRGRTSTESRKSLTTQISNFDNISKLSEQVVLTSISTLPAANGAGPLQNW

SMILES | pIC50
C[C@@H]1CC[C@@H](Oc2nccn3cc(C#N)nc23)CN1C(=O)c1ccccc1-n1nccn1 [Example 24, 8-(((3R,6R)-1-(2-(2H-1,2,3-triazol-2-yl)benzoyl)-6-methylpiperidin-3-yl)oxy)imidazo[1,2-a]pyrazine-2-carbonitrile] | 7.05
C[C@@H]1CC[C@@H](Oc2nccn3cc(CO)nc23)CN1C(=O)c1ccccc1-n1nccn1 [Example 25, (2-(2H-1,2,3-triazol-2-yl)phenyl)((2R,5R)-5-((2-(hydroxymethyl)imidazo[1,2-a]pyrazin-8-yl)oxy)-2-methylpiperidin-1-yl)methanone] | 7.31
C[C@@H]1CC[C@@H](Oc2nccn3c(Cl)cnc23)CN1C(=O)c1ccccc1-n1nccn1 [Example 26, (2-(2H-1,2,3-triazol-2-yl)phenyl)((2R,5R)-5-((3-chloroimidazo[1,2-a]pyrazin-8-yl)oxy)-2-methylpiperidin-1-yl)methanone] | 7.92
C[C@@H]1CC[C@@H](Oc2nccn3c(Cl)cnc23)CN1C(=O)c1ccccc1-n1ncnn1 [Example 27, (2-(2H-tetrazol-2-yl)phenyl) ((2R,5R)-5-((3-chloroimidazo[1,2-α]pyrazin-8-yl)oxy)-2-methylpiperidin-1-yl)methanone] | 8.04
C[C@@H]1CC[C@@H](Oc2nccn3c(Cl)cnc23)CN1C(=O)c1ccccc1C1(C#N)CC1 [Example 28, 1-(2-((2R,5R)-5-((3-chloroimidazo[1,2-α]pyrazin-8-yl)oxy)-2-methylpiperidine-1-carbonyl)phenyl) cyclopropanecarbonitrile] | 8.02
C[C@@H]1CC[C@@H](Oc2nccn3c(Cl)cnc23)CN1C(=O)c1ccsc1-n1nccn1 [Example 29, (2-(2H-1,2,3-triazol-2-yl)thiophen-3-yl)((2R,5R)-5-((3-chloroimidazo[1,2-α]pyrazin-8-yl)oxy)-2-methylpiperidin-1-yl)methanone] | 7.84
C[C@@H]1CC[C@@H](Nc2nccn3c(Cl)cnc23)CN1C(=O)c1ccccc1-n1nccn1 [Example 30, (2-(2H-1,2,3-triazol-2-yl)phenyl)((2R,5R)-5-((3-chloroimidazo[1,2-a]pyrazin-8-yl)amino)-2-methylpiperidin-1-yl)methanone] | 7.86
C[C@@H]1CC[C@@H](Nc2nccn3c(Cl)cnc23)CN1C(=O)c1ccccc1-c1ncccn1 [Example 31, ((2R,5R)-5-((3-chloroimidazo[1,2-a]pyrazin-8-yl)amino)-2-methylpiperidin-1-yl)(2-(pyrimidin-2-yl)phenyl)methanone] | 7.63
C[C@@H]1CC[C@@H](Oc2nccn3c(F)cnc23)CN1C(=O)c1ccccc1-n1nccn1 [Example 32, (2-(2H-1,2,3-triazol-2-yl)phenyl)((2R,5R)-5-((3-fluoroimidazo[1,2-a]pyrazin-8-yl)oxy)-2-methylpiperidin-1-yl)methanone] | 7.90
C[C@@H]1CC[C@@H](Oc2nccn3c(Br)cnc23)CN1C(=O)c1ccccc1-n1nccn1 [Example 33, (2-(2H-1,2,3-triazol-2-yl)phenyl)((2R,5R)-5-((3-bromoimidazo[1,2-a]pyrazin-8-yl)oxy)-2-methylpiperidin-1-yl)methanone] | 8.05
Cc1cnc2c(O[C@@H]3CC[C@@H](C)N(C(=O)c4ccccc4-n4nccn4)C3)nccn12 [Example 34, (2-(2H-1,2,3-triazol-2-yl)phenyl)((2R,5R)-2-methyl-5-((3-methylimidazo[1,2-a]pyrazin-8-yl)oxy)piperidin-1-yl)methanone] | 7.79
C[C@@H]1CC[C@@H](Oc2nccn3c(C#N)cnc23)CN1C(=O)c1ccccc1-n1nccn1 [Example 35, 8-(((3R,6R)-1-(2-(2H-1,2,3-triazol-2-yl)benzoyl)-6-methylpiperidin-3-yl)oxy)imidazo[1,2-a]pyrazine-3-carbonitrile] | 7.13
C=Cc1cnc2c(O[C@@H]3CC[C@@H](C)N(C(=O)c4ccccc4-n4nccn4)C3)nccn12 [Example 36, (2-(2H-1,2,3-triazol-2-yl)phenyl)((2R,5R)-2-methyl-5-((3-vinylimidazo[1,2-a]pyrazin-8-yl)oxy)piperidin-1-yl)methanone] | 7.68
CCc1cnc2c(O[C@@H]3CC[C@@H](C)N(C(=O)c4ccccc4-n4nccn4)C3)nccn12 [Example 37, (2-(2H-1,2,3-triazol-2-yl)phenyl)((2R,5R)-5-((3-ethylimidazo[1,2-a]pyrazin-8-yl)oxy)-2-methylpiperidin-1-yl)methanone] | 7.53
C[C@@H]1CC[C@@H](Oc2nccn3c(C(F)F)cnc23)CN1C(=O)c1ccccc1-n1nccn1 [Example 38, (2-(2H-1,2,3-triazol-2-yl)phenyl)((2R,5R)-5-((3-(difluoromethyl)imidazo[1,2-a]pyrazin-8-yl)oxy)-2-methylpiperidin-1-yl)methanone] | 7.75
C[C@@H]1CC[C@@H](Oc2nccn3c(C(F)F)cnc23)CN1C(=O)c1ccccc1CS(C)(=O)=O [Example 39, ((2R,5R)-5-((3-(difluoromethyl)imidazo[1,2-a]pyrazin-8-yl)oxy)-2-methylpiperidin-1-yl)(2-((methylsulfonyl)methyl)phenyl)methanone] | 7.20
C[C@@H]1CC[C@@H](Oc2nccn3c(C(F)F)cnc23)CN1C(=O)c1ccsc1-n1nccn1 [Example 40, (2-(2H-1,2,3-triazol-2-yl)thiophen-3-yl)((2R,5R)-5-((3-(difluoromethyl)imidazo[1,2-α]pyrazin-8-yl)oxy)-2-methylpiperidin-1-yl)methanone] | 7.98
C[C@@H]1CC[C@@H](Oc2nccn3c(C(F)F)cnc23)CN1C(=O)c1cscc1-n1nccn1 [Example 41, (4-(2H-1,2,3-triazol-2-yl)thiophen-3-yl)((2R,5R)-5-((3-(difluoromethyl)imidazo[1,2-α]pyrazin-8-yl)oxy)-2-methylpiperidin-1-yl)methanone] | 7.34
C[C@@H]1CC[C@@H](Oc2nccn3c(C(F)F)cnc23)CN1C(=O)c1ccccc1C1(C#N)CC1 [Example 42, 1-(2-((2R,5R)-5-((3-(difluoromethyl)imidazo[1,2-α]pyrazin-8-yl)oxy)-2-methylpiperidine-1-carbonyl)phenyl)cyclopropanecarbonitrile] | 8.30
C[C@@H]1CC[C@@H](Oc2nccn3c(C(F)F)cnc23)CN1C(=O)c1ccc(F)cc1-n1nccn1 [Example 43, ((2R,5R)-5-((3-(difluoromethyl)imidazo[1,2-α]pyrazin-8-yl)oxy)-2-methylpiperidin-1-yl)(4-fluoro-2-(2H-1,2,3-triazol-2-yl)phenyl)methanone] | 7.80
C[C@@H]1CC[C@@H](Oc2nccn3c(C(F)F)cnc23)CN1C(=O)c1ccccc1-n1ncnn1 [Example 44, (2-(2H-tetrazol-2-yl)phenyl)((2R,5R)-5-((3-(difluoromethyl)imidazo[1,2-α]pyrazin-8-yl)oxy)-2-methylpiperidin-1-yl)methanone] | 8.02
COCc1ccccc1C(=O)N1C[C@H](Oc2nccn3c(C(F)F)cnc23)CC[C@H]1C [Example 45, ((2R,5R)-5-((3-(difluoromethyl)imidazo[1,2-α]pyrazin-8-yl)oxy)-2-methylpiperidin-1-yl)(2-(methoxymethyl)phenyl)methanone] | 6.97
